Experimental data: ChEMBL document CHEMBL1201862, “PubChem BioAssay data set” (2004)
One block for each compound: values may come before it. Calls of active or inactive are those of the source.

Experiments:
Type in all cases: functional
[1] = target: Mitogen-activated protein kinase kinase kinase kinase 2 (Homo sapiens, UniProt Q12851);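 note: measured as one member of a kinome-wide kinase panel, with MAP4K2 as the panel entry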
[2] = target: Dual specificity protein kinase CLK4 (Homo sapiens, UniProt Q9HAZ1)
Sequence of Dual specificity protein kinase CLK4 (Q9HAZ1 whole entry): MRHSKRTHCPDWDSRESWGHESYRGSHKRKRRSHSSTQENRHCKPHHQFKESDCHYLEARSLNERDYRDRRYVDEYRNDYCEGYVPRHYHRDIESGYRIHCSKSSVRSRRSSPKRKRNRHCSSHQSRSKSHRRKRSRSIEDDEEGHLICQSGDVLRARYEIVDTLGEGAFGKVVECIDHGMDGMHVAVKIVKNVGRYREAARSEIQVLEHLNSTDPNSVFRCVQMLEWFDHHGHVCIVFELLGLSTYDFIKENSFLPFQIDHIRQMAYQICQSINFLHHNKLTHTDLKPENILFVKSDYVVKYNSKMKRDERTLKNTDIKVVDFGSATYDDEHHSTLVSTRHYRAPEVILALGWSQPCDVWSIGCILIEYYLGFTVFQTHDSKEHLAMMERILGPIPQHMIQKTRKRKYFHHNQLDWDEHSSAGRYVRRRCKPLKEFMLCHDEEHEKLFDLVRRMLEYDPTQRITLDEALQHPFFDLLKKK

[3] = target: Tyrosine-protein kinase ABL1 (Homo sapiens, UniProt P00519)
[4] = target: Vascular endothelial growth factor receptor 2 (Homo sapiens, UniProt P35968)
Sequence of Vascular endothelial growth factor receptor 2 (P35968 whole entry): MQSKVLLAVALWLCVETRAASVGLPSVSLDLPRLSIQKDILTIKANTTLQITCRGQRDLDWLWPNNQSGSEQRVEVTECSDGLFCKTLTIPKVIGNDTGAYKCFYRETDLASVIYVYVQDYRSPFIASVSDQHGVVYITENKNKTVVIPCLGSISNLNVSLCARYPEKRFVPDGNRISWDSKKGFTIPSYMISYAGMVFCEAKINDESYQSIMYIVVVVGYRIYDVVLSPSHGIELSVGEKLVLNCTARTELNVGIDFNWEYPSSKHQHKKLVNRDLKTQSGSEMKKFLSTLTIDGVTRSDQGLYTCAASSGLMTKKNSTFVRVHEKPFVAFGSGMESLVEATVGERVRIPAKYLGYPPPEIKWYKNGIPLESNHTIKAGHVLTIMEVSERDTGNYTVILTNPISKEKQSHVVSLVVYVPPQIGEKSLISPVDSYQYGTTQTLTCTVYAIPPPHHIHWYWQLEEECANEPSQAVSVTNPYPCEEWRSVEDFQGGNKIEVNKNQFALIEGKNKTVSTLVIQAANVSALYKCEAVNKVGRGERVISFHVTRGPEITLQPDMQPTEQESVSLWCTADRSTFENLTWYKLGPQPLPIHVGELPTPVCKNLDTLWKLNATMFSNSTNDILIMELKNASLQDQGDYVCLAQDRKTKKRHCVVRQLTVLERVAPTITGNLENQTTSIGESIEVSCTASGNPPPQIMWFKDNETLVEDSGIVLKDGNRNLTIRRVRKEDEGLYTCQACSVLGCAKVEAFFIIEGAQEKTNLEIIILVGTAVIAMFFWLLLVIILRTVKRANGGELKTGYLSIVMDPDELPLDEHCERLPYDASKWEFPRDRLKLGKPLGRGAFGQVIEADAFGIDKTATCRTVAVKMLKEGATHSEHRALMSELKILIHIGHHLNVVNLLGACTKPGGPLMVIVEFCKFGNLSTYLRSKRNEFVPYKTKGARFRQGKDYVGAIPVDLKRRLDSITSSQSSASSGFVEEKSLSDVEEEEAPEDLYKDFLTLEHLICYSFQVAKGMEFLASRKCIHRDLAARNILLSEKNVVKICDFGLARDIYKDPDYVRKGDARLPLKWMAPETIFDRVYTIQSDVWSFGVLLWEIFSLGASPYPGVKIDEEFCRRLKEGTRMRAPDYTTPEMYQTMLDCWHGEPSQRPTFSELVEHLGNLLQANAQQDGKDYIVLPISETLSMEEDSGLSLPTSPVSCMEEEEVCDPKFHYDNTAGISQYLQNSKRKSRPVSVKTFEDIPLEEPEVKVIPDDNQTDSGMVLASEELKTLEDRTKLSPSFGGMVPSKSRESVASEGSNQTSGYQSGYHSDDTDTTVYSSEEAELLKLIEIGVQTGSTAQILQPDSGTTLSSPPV

[5] = target: Testis-specific serine/threonine-protein kinase 2 (Homo sapiens, UniProt Q96PF2);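 note: part of the Navigating the Kinome panel, target entry STK22B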
[6] = target: Dual specificity tyrosine-phosphorylation-regulated kinase 4 (Homo sapiens, UniProt Q9NR20)
[7] = target: Protein kinase C gamma type (Homo sapiens, UniProt P05129)
[8] = target: Cell division cycle 7-related protein kinase (Homo sapiens, UniProt O00311);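 note: value obtained from a kinome-wide kinase panel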
Sequence of Cell division cycle 7-related protein kinase (O00311 whole entry): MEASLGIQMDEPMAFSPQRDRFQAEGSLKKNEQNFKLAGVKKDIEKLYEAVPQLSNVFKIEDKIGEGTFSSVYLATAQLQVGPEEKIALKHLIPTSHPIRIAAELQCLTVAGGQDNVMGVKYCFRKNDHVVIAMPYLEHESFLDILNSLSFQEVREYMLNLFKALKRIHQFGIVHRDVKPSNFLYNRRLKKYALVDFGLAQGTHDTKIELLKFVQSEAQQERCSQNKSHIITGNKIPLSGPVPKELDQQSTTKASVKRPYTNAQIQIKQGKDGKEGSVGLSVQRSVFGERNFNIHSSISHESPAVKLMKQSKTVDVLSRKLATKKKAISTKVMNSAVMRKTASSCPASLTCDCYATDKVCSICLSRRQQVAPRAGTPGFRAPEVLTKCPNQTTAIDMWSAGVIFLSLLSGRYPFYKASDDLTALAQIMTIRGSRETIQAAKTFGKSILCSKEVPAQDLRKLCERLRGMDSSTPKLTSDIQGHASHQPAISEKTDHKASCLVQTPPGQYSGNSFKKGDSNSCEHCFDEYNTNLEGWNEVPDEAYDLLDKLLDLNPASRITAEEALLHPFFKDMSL

[9] = target: Lymphokine-activated killer T-cell-originated protein kinase (Homo sapiens, UniProt Q96KB5);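 note: value comes from a kinase panel screen in which TOPK was one of the panel members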
Sequence of Lymphokine-activated killer T-cell-originated protein kinase (Q96KB5 whole entry): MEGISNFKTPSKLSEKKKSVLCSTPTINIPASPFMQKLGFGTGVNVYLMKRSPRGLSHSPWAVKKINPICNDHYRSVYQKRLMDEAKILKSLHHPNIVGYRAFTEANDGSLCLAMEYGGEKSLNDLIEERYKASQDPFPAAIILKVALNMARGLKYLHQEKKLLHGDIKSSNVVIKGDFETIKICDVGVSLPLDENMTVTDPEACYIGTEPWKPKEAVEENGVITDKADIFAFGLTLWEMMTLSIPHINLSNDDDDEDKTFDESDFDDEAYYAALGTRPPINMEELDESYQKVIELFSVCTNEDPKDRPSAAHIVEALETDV

[10] = target: MAP kinase-activated protein kinase 3 (Homo sapiens, UniProt Q16644);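 note: value comes from a kinome-wide profiling panel in which MAPKAPK3 is one of the panel members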
Sequence of MAP kinase-activated protein kinase 3 (Q16644 whole entry): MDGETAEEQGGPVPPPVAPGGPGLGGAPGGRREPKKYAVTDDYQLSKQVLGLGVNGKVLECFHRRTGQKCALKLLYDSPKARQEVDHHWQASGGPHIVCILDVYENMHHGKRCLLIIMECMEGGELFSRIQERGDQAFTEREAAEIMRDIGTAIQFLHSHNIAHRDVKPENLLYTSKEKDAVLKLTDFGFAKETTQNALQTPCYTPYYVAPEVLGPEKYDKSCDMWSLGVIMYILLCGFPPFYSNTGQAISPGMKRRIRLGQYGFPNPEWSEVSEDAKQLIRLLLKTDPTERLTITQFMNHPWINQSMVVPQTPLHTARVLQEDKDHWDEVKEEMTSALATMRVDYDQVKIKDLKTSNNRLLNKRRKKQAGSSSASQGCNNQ

[11] = target: Eukaryotic elongation factor 2 kinase (Homo sapiens, UniProt O00418)
Sequence of Eukaryotic elongation factor 2 kinase (O00418 whole entry): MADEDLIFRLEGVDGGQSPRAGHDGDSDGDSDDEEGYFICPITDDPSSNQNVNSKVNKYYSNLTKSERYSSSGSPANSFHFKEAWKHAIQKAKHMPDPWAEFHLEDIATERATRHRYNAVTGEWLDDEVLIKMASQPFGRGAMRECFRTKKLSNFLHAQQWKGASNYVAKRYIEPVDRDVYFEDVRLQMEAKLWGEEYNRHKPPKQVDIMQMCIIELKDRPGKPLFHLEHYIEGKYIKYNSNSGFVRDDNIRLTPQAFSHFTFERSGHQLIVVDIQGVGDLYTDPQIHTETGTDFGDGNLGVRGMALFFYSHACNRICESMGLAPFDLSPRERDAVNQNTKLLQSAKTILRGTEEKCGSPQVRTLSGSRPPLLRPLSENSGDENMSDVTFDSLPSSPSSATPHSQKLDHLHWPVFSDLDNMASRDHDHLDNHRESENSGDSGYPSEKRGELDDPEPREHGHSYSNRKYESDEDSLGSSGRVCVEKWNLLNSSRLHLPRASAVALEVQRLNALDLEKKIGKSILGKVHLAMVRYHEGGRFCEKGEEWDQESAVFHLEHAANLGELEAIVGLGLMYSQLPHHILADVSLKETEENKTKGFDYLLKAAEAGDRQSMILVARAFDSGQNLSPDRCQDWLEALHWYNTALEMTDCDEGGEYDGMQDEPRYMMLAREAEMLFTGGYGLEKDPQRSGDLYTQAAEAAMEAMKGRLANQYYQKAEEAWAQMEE

[12] = target: Dual specificity tyrosine-phosphorylation-regulated kinase 3 (Homo sapiens, UniProt O43781);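 note: measured as one member of a broad kinase panel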
Sequence of Dual specificity tyrosine-phosphorylation-regulated kinase 3 (O43781 whole entry): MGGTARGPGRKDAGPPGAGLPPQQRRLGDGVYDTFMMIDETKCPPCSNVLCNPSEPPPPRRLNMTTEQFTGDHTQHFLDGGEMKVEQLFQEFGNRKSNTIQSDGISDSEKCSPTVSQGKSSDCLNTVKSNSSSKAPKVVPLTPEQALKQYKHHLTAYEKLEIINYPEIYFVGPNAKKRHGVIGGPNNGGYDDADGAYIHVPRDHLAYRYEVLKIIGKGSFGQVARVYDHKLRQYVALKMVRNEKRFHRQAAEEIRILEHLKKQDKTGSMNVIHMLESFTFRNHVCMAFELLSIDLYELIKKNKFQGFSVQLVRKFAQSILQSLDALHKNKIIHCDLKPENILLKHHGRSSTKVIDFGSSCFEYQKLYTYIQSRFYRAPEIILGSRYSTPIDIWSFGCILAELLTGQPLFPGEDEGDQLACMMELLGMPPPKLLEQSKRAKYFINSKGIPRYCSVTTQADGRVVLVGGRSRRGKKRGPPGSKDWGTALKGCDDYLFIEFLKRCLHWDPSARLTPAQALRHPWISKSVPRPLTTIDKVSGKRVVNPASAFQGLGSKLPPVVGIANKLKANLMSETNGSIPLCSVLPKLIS

[13] = target: T1, DNA dC->dU-editing enzyme APOBEC-3G (Homo sapiens, UniProt Q9HC16); assay: SAR analysis of small molecule inhibitors of APOBEC3G DNA Deaminase via a fluorescence-based single-stranded DNA deaminase assay - Set 2.; settings: read-out: IC50_Mean
T1 sequence (Q9HC16 whole entry): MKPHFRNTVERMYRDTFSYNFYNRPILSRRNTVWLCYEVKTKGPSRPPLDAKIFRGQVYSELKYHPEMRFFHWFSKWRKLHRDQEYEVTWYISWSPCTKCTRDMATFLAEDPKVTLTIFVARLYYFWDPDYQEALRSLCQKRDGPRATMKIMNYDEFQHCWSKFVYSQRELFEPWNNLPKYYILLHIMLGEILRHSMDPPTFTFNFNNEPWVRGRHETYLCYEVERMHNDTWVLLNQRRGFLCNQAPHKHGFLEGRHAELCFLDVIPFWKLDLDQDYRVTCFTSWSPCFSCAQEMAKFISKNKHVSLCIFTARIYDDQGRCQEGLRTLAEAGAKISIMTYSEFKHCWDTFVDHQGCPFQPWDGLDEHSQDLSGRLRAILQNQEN

[14] = target: T2, DNA dC->dU-editing enzyme APOBEC-3A (Homo sapiens, UniProt P31941); assay: SAR analysis of small molecule inhibitors of APOBEC3A DNA Deaminase via a fluorescence-based single-stranded DNA deaminase assay - Set 2.; settings: read-out: IC50_Mean
T2 sequence (P31941 whole entry): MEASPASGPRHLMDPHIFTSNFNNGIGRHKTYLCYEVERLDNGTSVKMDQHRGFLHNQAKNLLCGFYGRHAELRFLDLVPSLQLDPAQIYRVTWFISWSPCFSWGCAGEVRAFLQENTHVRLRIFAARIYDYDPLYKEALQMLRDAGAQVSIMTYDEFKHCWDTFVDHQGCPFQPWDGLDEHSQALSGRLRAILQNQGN

[15] = target: T2, DNA dC->dU-editing enzyme APOBEC-3A; assay: A3A deaminase inhibition for selectivity – biochemical, dose response (AID 504722)
[16] = target: T1, DNA dC->dU-editing enzyme APOBEC-3G; assay: Dose Response confirmation of small molecule APOBEC3G DNA Deaminase Inhibitors via a fluorescence-based single-stranded DNA deaminase assay. [Related pubchem assays (depositor defined):AID493012, AID493028]
[17] = target: T2, DNA dC->dU-editing enzyme APOBEC-3A; assay: SAR analysis of small molecule inhibitors of APOBEC3A DNA Deaminase via a fluorescence-based single-stranded DNA deaminase assay.; settings: read-out: IC50_Mean
[18] = target: T1, DNA dC->dU-editing enzyme APOBEC-3G; assay: inhibition of APOBEC3G ssDNA deamination – biochemical, fluorescence, single-stranded DNA substrate, SAR follow-up (AID 602136); settings: read-out: IC50_Mean
[19] = target: T3, Mitochondrial peptide methionine sulfoxide reductase (Bos taurus, UniProt P54149); assay: Absorbance-based biochemical high throughput dose response assay for activators of Methionine sulfoxide reductase A (MsrA).
T3 sequence (P54149 whole entry): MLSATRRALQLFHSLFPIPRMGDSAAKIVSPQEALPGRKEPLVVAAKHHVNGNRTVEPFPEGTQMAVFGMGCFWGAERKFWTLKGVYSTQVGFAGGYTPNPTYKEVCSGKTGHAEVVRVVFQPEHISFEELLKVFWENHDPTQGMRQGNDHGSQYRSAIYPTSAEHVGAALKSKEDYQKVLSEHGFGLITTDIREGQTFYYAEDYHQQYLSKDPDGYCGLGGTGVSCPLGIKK

Ki [1]: 5.01 µM (active)
Ki [2]: 7.94 µM (active)
SMILES: O=C1CC(c2ccc(Cl)cc2Cl)Cc2[nH]c3ccc(Cl)cc3c(=O)c21 (centres undefined)

Ki [3]: 79.4 µM (active)
Ki [4]: 100 µM (active)
SMILES: N#Cc1cnc2c(Br)cnn2c1N

SMILES: Cc1ccc(NC(=O)c2ccc(CN3CCN(C)CC3)cc2)cc1Nc1nccc(-c2cccnc2)n1 [IMATINIB]
Ki [5]: > 1.58 µM (inactive)
Ki [6]: > 7.94 µM (inactive)
Ki [7]: > 7.94 µM (inactive)
Ki [8]: > 1.26 µM (inactive)
Ki [9]: > 10 µM (inactive)
Ki [10]: > 10 µM (inactive)
Ki [11]: > 3.98 µM (inactive)
Ki [12]: > 6.31 µM (inactive)

SMILES: Sc1nnc(NCCc2ccccc2)s1
IC50 [13]: 0.695 µM (active)
IC50 [14]: > 99 µM (inactive)
IC50 [15]: > 100 µM (inactive)
IC50 [16]: 1.2 µM (active)
IC50 [17]: > 99 µM (inactive)
IC50 [18]: 0.835 µM (active)
EC50 [19]: > 104 µM (inactive)
